Laboratory results reported in patent US20140080813A1, “TRICYCLIC QUINOLINE AND QUINOXALINE DERIVATIVES” (ABBVIE DEUTSCHLAND GMBH & CO. KG, priority 2012, published 2014).
Where a name gives a salt, the structure may show the parent alone.

Target: T1, 5-HT2C receptor (Homo sapiens, UniProt P28335)
T1 construct: host or cells: U2OS
Test: Functional activity: beta-arrestin2 recruitment to the 5-HT2C receptor in U2OS_HTR2C-β-Arrestin cells (DiscoverX)
Type: cell-based
Conditions: 1.5 h incubation, chemiluminescent β-galactosidase complementation readout, read-out: Potency (EC50) in functional assay
Description: The functional activity of compounds of formula I was assayed by incubation with U2OS_HTR2C—β-Arrestin cells (DiscoverX, 93-0289C3) to induce beta-arrestin2 recruitment to the 5-HT2C receptor. The agonist-induced recruitment and proximity of the receptor and beta-arrestin2 leads to complementation and formation of active β-galactosidase. The enzyme complementation results in enzyme activity, which is measured following the termination of the agonist incubation using DiscoveRx's detection reagent, which contains a chemiluminescent substrate which produces a high intensity signal. Cells were plated and a medium-change to a 1% serum containing medium was performed 24 h later. The next day, test compounds were added and incubated for 1.5 h before addition of detection reagent.
The response produced was measured and compared with the response produced by 10 [mu]M 5-HT or the maximal effect induced by 5-HT (defined as 100%) to which it was expressed as a percentage response (relative efficacy). Dose response curves were constructed using Graphpad Prism (Graph Software Inc.) or using in house adapted software using a 4 parameter dose response model with variable slope (fit=(Bottom+(Top−Bottom)/(1+10̂((LogEC50−x)*HillSlope))res=(y-fit)). Results are compiled in the table below.

T1 sequence (P28335 33-458): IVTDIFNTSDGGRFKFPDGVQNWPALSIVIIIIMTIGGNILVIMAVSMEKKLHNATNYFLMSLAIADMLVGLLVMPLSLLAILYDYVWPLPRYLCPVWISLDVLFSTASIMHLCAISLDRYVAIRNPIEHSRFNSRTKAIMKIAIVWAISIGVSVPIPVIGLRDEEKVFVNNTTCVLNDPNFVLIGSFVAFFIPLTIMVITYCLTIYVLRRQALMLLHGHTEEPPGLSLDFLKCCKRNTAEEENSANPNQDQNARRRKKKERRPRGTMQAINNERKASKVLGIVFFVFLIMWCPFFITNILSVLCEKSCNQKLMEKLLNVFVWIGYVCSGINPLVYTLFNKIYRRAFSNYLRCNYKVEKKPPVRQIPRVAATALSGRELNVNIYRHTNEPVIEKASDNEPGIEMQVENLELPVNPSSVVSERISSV
T1 sequence (P32121 whole entry partner): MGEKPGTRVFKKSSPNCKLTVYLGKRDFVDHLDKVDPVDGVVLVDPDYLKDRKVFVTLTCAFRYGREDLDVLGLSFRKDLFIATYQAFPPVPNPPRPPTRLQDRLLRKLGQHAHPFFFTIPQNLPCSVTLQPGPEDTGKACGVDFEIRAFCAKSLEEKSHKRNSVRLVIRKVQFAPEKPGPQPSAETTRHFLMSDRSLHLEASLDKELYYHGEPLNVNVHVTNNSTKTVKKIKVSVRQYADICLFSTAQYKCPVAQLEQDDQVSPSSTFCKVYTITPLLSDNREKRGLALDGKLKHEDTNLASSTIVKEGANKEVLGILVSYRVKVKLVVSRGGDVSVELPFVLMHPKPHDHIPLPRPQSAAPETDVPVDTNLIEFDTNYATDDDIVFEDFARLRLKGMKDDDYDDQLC

| SMILES | EC50 [µM] |
| --- | --- |
| c1cc2c3c(c1)C1(CCC1)CCN3CCNC2 [Example 25, 1′,2′,3′,4′,6′,7′-Hexahydrospiro[cyclobutane-1,8′-[1,4]diazepino[6,7,1-ij]quinoline], hydrochloride] | 0.02 to 0.2 |
| CC1(C(F)(F)F)CCN2CCNCc3cccc1c32 (single isomer, unassigned) [Example 9, 8-Methyl-8-(trifluoromethyl)-2,3,4,6,7,8-hexahydro-1H-[1,4]diazepino[6,7,1-ij]quinoline] | < 0.02 |
| CC1(C)CCN2CCNCc3cc(Cl)cc1c32 [Example 19, 10-Chloro-8,8-dimethyl-2,3,4,6,7,8-hexahydro-1H-[1,4]diazepino[6,7,1-ij]quinoline bis(2,2,2-trifluoroacetate)] | 0.02 to 0.2 |
| Fc1ccc2c3c1C1(CCC1)CCN3CCNC2 [Example 26, 9′-Fluoro-1′,2′,3′,4′,6′,7′-hexahydrospiro[cyclobutane-1,8′-[1,4]diazepino[6,7,1-ij]quinoline], hydrochloride] | < 0.02 |
| c1cc2c3c(c1)N1CCC[C@@H]1CN3CCNC2 [Example 16, (R)-5,6,7,9,9a,10,11,12-Octahydro-4H-[1,4]diazepino[1,7,6-de]pyrrolo[1,2-a]quinoxaline bis(2,2,2-trifluoroacetate)] | 0.2 to 1 |
| CC1(C)CCN2CCNCc3ccc(F)c1c32 [Example 22, 9-Fluoro-8,8-dimethyl-2,3,4,6,7,8-hexahydro-1H-[1,4]diazepino[6,7,1-ij]quinoline] | 0.02 to 0.2 |
| c1cc2c3c(c1)C1(CCCC1)CCN3CCNC2 [Example 6, 1,2,3,4,6,7-Hexahydrospiro[[1,4]diazepino[6,7,1-ij]quinoline-8,1′-cyclopentane]] | 0.02 to 0.2 |

The remaining lines, values ahead:

| EC50 [µM] | SMILES |
| --- | --- |
| 0.2 to 1 | CC1CN2CCNCc3cccc(c32)C1(C)C (single isomer, unassigned) [Example 27] |
| 0.02 to 0.2 | CC1(C)CCN2CCNCc3cccc1c32 [Example 1, 8,8-Dimethyl-2,3,4,6,7,8-hexahydro-1H-[1,4]diazepino[6,7,1-ij]quinoline] |
| 0.02 to 0.2 | CC1(C(F)(F)F)CCN2CCNCc3cccc1c32 (single isomer, unassigned) [Example 8, 8-Methyl-8-(trifluoromethyl)-2,3,4,6,7,8-hexahydro-1H-[1,4]diazepino[6,7,1-ij]quinoline] |
| 0.02 to 0.2 | CC1CN2CCNCc3cccc(c32)C1(C)C (single isomer, unassigned) [Example 28] |
